In patent publication US8338414B2, “Immunosuppressive agent and anti-tumor agent comprising heterocyclic compound as active ingredient” (Zenyaku Kogyo KabushikiKaisha, priority 2005, dated 2012):

Key:
[1] = tested on: human peripheral blood mononuclear cells; experiment: Proliferation inhibition assay for human peripheral blood mononuclear cells; assay type: cell-based; details: Homo sapiens, 72 h; PBMC, anti-CD3 and anti-CD28 antibody, 3 days, Alamar Blue
Method in brief: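 PBMC from healthy donors (1×10^5 cells/mL) in RPMI 1640 with 10% FBS were stimulated with plate-bound anti-CD3 plus anti-CD28 (1 μg/mL). Serially diluted compounds were added and cells were cultured 3 days at 37 °C. Alamar Blue was then added for 1 day and fluorescence was read at ex 530/em 590 nm.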

[2] = tested on: human peripheral blood mononuclear cells; experiment: Activation inhibition assay for human peripheral blood mononuclear cells (CD40L, CD69 expression); assay type: cell-based; details: PBMC, anti-CD3 + anti-CD28, 6 hours, flow cytometry
Protocol: In accordance with the method of Assay Example 2, PBMC (2×10^6 cells/mL) was isolated from human peripheral blood, suspended in RPMI 1640 medium (containing 10% fetal bovine serum, 10 mM HEPES, 1 mM pyruvic acid, and 4.5 g/L glucose), and seeded in wells of a 96 well plate at 0.225 mL per well. The test substances were added to respective wells, and then an anti-CD3 antibody (2 μg/mL) and an anti-CD28 antibody (1 μg/mL) were added. Then, after incubation under conditions of carbon dioxide 5% at a temperature 37° C. for 6 hours, the expressions of CD40L and CD69, activation markers, were analysed by flow cytometry. As a result, when the cells were stimulated by both an anti-CD3 antibody and an anti-CD28 antibody, CD40L was expressed on 14.4% of PBMC, which was also CD4 positive. However, the proportion of the cells which expressed CD40L decreased when the cells had been treated with test substances (Compound 4: 4.9%; Compound 20: 3.7%, Compound 24: 3.6%).

[3] = tested on: collagen-induced arthritis; experiment: Collagen-induced arthritis inhibitory action; assay type: in vivo, mouse; details: DBA1 mice
Protocol: Bovine type II collagen suspended in Freund's complete adjuvant was intradermally administered to the base of tail of DBA1 male mice (7 weeks old, purchased from Charles River Laboratories Japan Inc.) on day 1 and day 21. Then, from day 28 when 50% of the mice developed arthritis, the test substances suspended in 0.5% hydroxypropylcellulose (HPC) were orally administered on consecutive days. Here, the efficacy was evaluated by scoring the arthritis. Specifically, for each paw, the degree of arthritis was evaluated according to: no symptoms: 0; redness or swelling of one joint: 1; redness or swelling for two or more joints: 2; redness or swelling over the entire paw: 3; and maximum redness or swelling over the entire paw: 4.

[4] = tested on: Rabbit synoviocytes HIG-82; experiment: Inhibition assay for proliferation of rabbit synoviocyte; assay type: cell-based; details: Oryctolagus cuniculus, 72 h; HIG-82, 3 days, Alamar Blue
Daudi cells [5] = experiment: Proliferation inhibitory activity on hematologic neoplasm cells, Daudi; assay type: cell-based; details: Homo sapiens, Daudi, 72 h; 3 days, Alamar Blue
Jurkat cells = experiment: Proliferation inhibitory activity on hematologic neoplasm cells, Jurkat; assay type: cell-based; details: Homo sapiens, Jurkat, 72 h; 3 days, Alamar Blue
HL 60 cells = experiment: Proliferation inhibitory activity on hematologic neoplasm cells, HL60; assay type: cell-based; details: Homo sapiens, HL-60, 72 h; 3 days, Alamar Blue
THP-1 cells = experiment: Proliferation inhibitory activity on hematologic neoplasm cells, THP-1; assay type: cell-based; details: Homo sapiens, THP-1, 72 h; 3 days, Alamar Blue
Daudi cells [6] = experiment: Therapeutic action on human B lymphoma xenografted model; assay type: in vivo, mouse; details: NOD/SCID mice, Daudi subcutaneous, 400 mg/kg oral after day 20
Protocol: Daudi cells (1×10^7 cells/mL) cultured in RPMI 1640 medium (containing 10% fetal bovine serum, 10 mM HEPES, 1 mM pyruvic acid, 4.5 g/L glucose, 100 units/mL penicillin, and 0.1 mg/mL streptomycin) were implanted subcutaneously in the chests of 8 week-old NOD/SCID mice. After day 20 when the tumor had grown to the volume of about 800 mm^3, Compound 4 (400 mg/kg) was administered orally.

fulminant hepatitis = experiment: Fulminant hepatitis model (galactosamine and LPS); assay type: in vivo, mouse; details: BALB/c mice, galactosamine 800 mg/kg and LPS 110 μg/kg i.p.
Protocol: BALB/c male mice (7 weeks old, purchased from Charles River Laboratories Japan Inc.) were used in the experiment. After having orally administered the test substances suspended in 5% HPC, galactosamine (800 mg/kg) and LPS (110 μg/kg) were intraperitoneally administered. Then, survival rates at 72 hours after administration were obtained.

[7] = Toxicologic test for single oral administration; details: rat, in vivo, po, 1200 mg/kg

## FC(F)c1nc2ccccc2n1-c1nc(N2CCOCC2)nc(N2CCOCC2)n1 [Compound 4, 2-(2-Difluoromethylbenzimidazol-1-yl)-4,6-dimorpholino-1,3,5-triazine]
[1]
  IC50: 312 nM
[2]; CD4 positive, 14.4% without test substance
  proportion of the cells which expressed CD40L: 4.9%
[2]; 28.8% without test substance
  proportion of CD4-positive cells which expressed CD69: 18.8%
[2]; 50.9% without test substance
  proportion of CD4-negative cells which expressed CD69: 17.7%
[3]; 50 mg/kg oral, after day 44 (conditions exacerbated after day 40)
  arthritis score, difference versus control group: no significant difference was recognized in comparison with the control group
[3]; 50 or 100 mg/kg oral, after day 30, Dunnett's test P<0.05
  arthritis score, efficacy versus control group: a statistically significant efficacy was recognized
[3]; oral on consecutive days from day 28
  progression of collagen-induced arthritis (arthritis score): inhibited the progression of the collagen-induced arthritis in a dose-dependent manner
[4]
  IC50: 953 nM
Daudi cells [5]
  IC50: 105 nM
Jurkat cells
  IC50: 1950 nM
HL 60 cells
  IC50: 1120 nM
THP-1 cells
  IC50: 511 nM
Daudi cells [6]
  increase in tumor volume: inhibited
Fulminant hepatitis; 50 mg/kg oral
  Survival Rate after 72 Hours: 60%
Fulminant hepatitis; 100 mg/kg oral
  Survival Rate after 72 Hours: 83%
[7]
  death after single oral dose: no examples of death were recognized
